Among the test systems are MOLT-4; NCI-H226; RPMI-8226; A549; HOP-62; HT-29; CCRF-CEM; HCT-116; 786-0; NCI-H23; COLO 205; SK-OV-3; NCI-H460; SNB-75; OVCAR-8; SK-MEL-28; MCF7; HOP-92; EKVX.
Common to all, as to assay: NCI-60 cell line screen, 48 h

Molecules are shown by their SMILES.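 Each compound was tested at five concentrations against cells in 96-well plates for 48 hours. Here, GI50 denotes the concentration required for 50% inhibition of growth.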 Calls of active or inactive are those of the source. No stated cut-off is given here; in the data, active = GI50 up to about 1.1 µM and inactive = higher.

With `O=c1[nH]c(N/N=C\C(O)C(O)C(O)CO)nc2ccccc12` (stereo not given), the GI50 in the assay on MOLT-4, in the assay on NCI-H226, with RPMI-8226, in the assay with A549, with HOP-62 and with HT-29 was > 100 µM (inactive) throughout. The GI50 was > 100 µM (inactive) with CCRF-CEM; > 100 µM (inactive) in the assay on HCT-116; > 100 µM (inactive) with 786-0; > 100 µM (inactive) with NCI-H23; 83.2 µM (inactive) in the assay on COLO 205; > 100 µM (inactive) in the assay with SK-OV-3. Also, the GI50 with NCI-H460, in the assay with SNB-75, in the assay on OVCAR-8, with SK-MEL-28, in the assay on MCF7 and in the assay with HOP-92 was > 100 µM (inactive) each time. The GI50 in the assay with EKVX is > 100 µM (inactive).

Take `O=C1/C(=C/c2cccs2)NC(=S)N1CN1CCCCC1`: the GI50 with MOLT-4 was 55.5 µM (inactive); in the assay with NCI-H226, 78.2 µM (inactive); with RPMI-8226, 28.9 µM (inactive); in the assay with A549, > 100 µM (inactive); in the assay with HOP-62, > 100 µM (inactive); in the assay on HT-29 it was 39.9 µM (inactive). In addition, the GI50 is 60.5 µM (inactive) with CCRF-CEM; 33 µM (inactive) in the assay on HCT-116; 42.3 µM (inactive) in the assay on 786-0; > 100 µM (inactive) with NCI-H23; 17.4 µM (inactive) in the assay on COLO 205; > 100 µM (inactive) in the assay on SK-OV-3. Besides, the GI50 was > 100 µM (inactive) in the assay on SNB-75; 41 µM (inactive) in the assay with OVCAR-8; > 100 µM (inactive) in the assay on SK-MEL-28; 28.2 µM (inactive) with MCF7; 77.1 µM (inactive) with HOP-92; 55 µM (inactive) in the assay on EKVX.

Consider `c1ccc(Cc2cc(-c3ccccc3)[nH]n2)cc1`, for which the GI50 with MOLT-4 was 10.4 µM (inactive); in the assay with NCI-H226, 12.5 µM (inactive); in the assay with A549, 11.1 µM (inactive); in the assay with HOP-62 it was 24.8 µM (inactive); in the assay on HT-29, 11.2 µM (inactive); in the assay on CCRF-CEM it was 10.9 µM (inactive). Also, the GI50 in the assay with HCT-116 is 25.9 µM (inactive); in the assay on 786-0 it was 17 µM (inactive); in the assay with COLO 205, 17.4 µM (inactive); with SK-OV-3, 32.4 µM (inactive); in the assay with NCI-H460, 17 µM (inactive); in the assay on SNB-75, < 0.01 µM (active). The GI50 with OVCAR-8 was 13.5 µM (inactive); in the assay with SK-MEL-28, 11.6 µM (inactive); in the assay on MCF7, 19.8 µM (inactive); in the assay with EKVX, 10.6 µM (inactive).

`COc1ccc(-c2nc3ncccn3c2-c2ccc([S+](C)[O-])cc2)cc1` (stereo not given): the GI50 in the assay with MOLT-4, in the assay on RPMI-8226, in the assay with A549, in the assay with HOP-62, in the assay on HT-29 and in the assay on CCRF-CEM was > 100 µM (inactive) in each case. For the same compound, the GI50 is > 100 µM (inactive) in the assay on HCT-116; > 100 µM (inactive) in the assay with 786-0; > 100 µM (inactive) with NCI-H23; > 100 µM (inactive) with COLO 205; 45.3 µM (inactive) in the assay with SK-OV-3; > 100 µM (inactive) in the assay with NCI-H460. In addition, the GI50 is > 100 µM (inactive) in the assay with SNB-75; > 100 µM (inactive) with OVCAR-8; > 100 µM (inactive) in the assay on SK-MEL-28; 28.3 µM (inactive) with MCF7; 61.2 µM (inactive) in the assay with HOP-92.

On to `NC(Cc1c[nH]c2cc([N+](=O)[O-])ccc12)C(=O)O` (stereo not given), for which the GI50 with MOLT-4 is > 100 µM (inactive); in the assay with NCI-H226, 33.7 µM (inactive); in the assay on RPMI-8226 it was > 100 µM (inactive); in the assay on A549, > 100 µM (inactive); with HOP-62 it was > 100 µM (inactive); in the assay with HT-29 it was > 100 µM (inactive). Further, the GI50 in the assay with HCT-116, with 786-0, in the assay on NCI-H23, in the assay on COLO 205, in the assay on SK-OV-3 and in the assay on NCI-H460 was > 100 µM (inactive) in each case. Besides, the GI50 in the assay with SNB-75 was > 100 µM (inactive); with OVCAR-8, > 100 µM (inactive); with SK-MEL-28, > 100 µM (inactive); in the assay on MCF7, > 100 µM (inactive); in the assay with HOP-92, 67.6 µM (inactive); in the assay on EKVX, > 100 µM (inactive).

Regarding `CC1=NN(c2ccccc2)C(=O)C1/N=N/c1ccc([As](=O)(O)O)c(O)c1` (stereo not given), the GI50 was > 100 µM (inactive) in the assay on MOLT-4; > 100 µM (inactive) in the assay with NCI-H226; 57 µM (inactive) with RPMI-8226; > 100 µM (inactive) with A549; > 100 µM (inactive) with HOP-62; > 100 µM (inactive) with HT-29. Further, the GI50 was 25.4 µM (inactive) in the assay with CCRF-CEM; > 100 µM (inactive) with HCT-116; > 100 µM (inactive) with 786-0; > 100 µM (inactive) in the assay with NCI-H23; > 100 µM (inactive) with COLO 205; > 100 µM (inactive) in the assay on SK-OV-3. The GI50 in the assay on NCI-H460, in the assay on SNB-75, in the assay with OVCAR-8, in the assay on SK-MEL-28, in the assay with MCF7 and in the assay with HOP-92 was > 100 µM (inactive) each time. Moreover, the GI50 with EKVX is > 100 µM (inactive).

Consider `Cc1ccc(-c2cc(O)c3nc4ccccc4n3c2)cc1`, for which the GI50 with MOLT-4, with NCI-H226, in the assay on RPMI-8226, with A549, in the assay with HOP-62 and in the assay on HT-29 was > 100 µM (inactive) in each case. Besides, the GI50 in the assay with CCRF-CEM, in the assay on HCT-116, with 786-0, in the assay with NCI-H23, in the assay on COLO 205 and with SK-OV-3 was > 100 µM (inactive) throughout. Also, the GI50 is 60.8 µM (inactive) with NCI-H460; > 100 µM (inactive) with SNB-75; 54.3 µM (inactive) in the assay with OVCAR-8; > 100 µM (inactive) in the assay on SK-MEL-28; > 100 µM (inactive) in the assay on MCF7; > 100 µM (inactive) in the assay with HOP-92. Besides, the GI50 in the assay on EKVX is > 100 µM (inactive).

`Cc1nn(C(=O)c2ccccc2O)c2c1C(c1ccc(O)cc1O)SC(=N)N2` (stereo not given): the GI50 is 3.48 µM (inactive) in the assay on MOLT-4; 1.32 µM (inactive) in the assay with NCI-H226; 2.89 µM (inactive) in the assay with RPMI-8226; 4.76 µM (inactive) with A549; 3.02 µM (inactive) in the assay with HOP-62; > 10 µM (inactive) in the assay on HT-29. Besides, the GI50 was 3.05 µM (inactive) in the assay with CCRF-CEM; 3.83 µM (inactive) with HCT-116; 6.85 µM (inactive) in the assay on 786-0; 3.98 µM (inactive) with NCI-H23; 9.35 µM (inactive) in the assay with COLO 205; 3.6 µM (inactive) in the assay on SK-OV-3. Also, the GI50 in the assay on NCI-H460 was 4.6 µM (inactive); in the assay with SNB-75, 2.48 µM (inactive); in the assay with OVCAR-8 it was 6.04 µM (inactive); in the assay with SK-MEL-28, 8.91 µM (inactive); in the assay with MCF7 it was 0.472 µM (active); with HOP-92 it was 3.67 µM (inactive). In addition, the GI50 with EKVX is 8.11 µM (inactive).

(Values after ChEMBL document CHEMBL1201862, “PubChem BioAssay data set” (2004).)
